Where “and” joins values, the source holds several entries; their conditions need not be identical. Identical values can stand only once.
Experiments:
[1] = tested on: Miscellaneous Streptococcus and nontypeable strains; experiment: Dalbavancin MIC of baseline pathogens; type: cell-based; conditions: baseline isolates, MITT
Text: (§1) The most common pathogen was S. aureus.

S. aureus = experiment: Dalbavancin MIC of baseline pathogens; type: cell-based; conditions: baseline isolates, MITT
Text: as §1

Group B streptococcus = experiment: Dalbavancin MIC of baseline pathogens; type: cell-based; conditions: baseline isolates, MITT
Text: as §1

Streptococcus pyogenes = experiment: Dalbavancin MIC of baseline pathogens; type: cell-based; conditions: baseline isolates, MITT
Text: as §1

staphylococci = experiment: In vitro antibacterial activity; type: cell-based; conditions: including some teicoplanin-resistant strains
dog albumin = dog albumin (Canis lupus familiaris, UniProt P49822); experiment: Protein binding by ITC; conditions: pH 7.4
human α-glycoprotein = experiment: Protein binding by ITC; conditions: for Apparent binding affinity Ka: pH 7.4; for Calculated percent Binding to Human α-glycoprotein: protein […]10^−5 M assumed
bacteria = conditions: cited from earlier work
[2] = tested on: skin and soft tissue infections (SSTI); experiment: Phase II SSTI trial: clinical response (success = cure or improvement); type: in vivo, human; conditions: for Clinical success rate at FU, patients with MRSA: MITT population; for Clinical success rate, exploratory subanalysis: patients with deep or complicated SSTI at baseline
Experimental: This randomized, controlled study evaluated the safety and efficacy of two dose regimens of dalbavancin.
There were 62 patients randomized into the study; all received at least one dose of study medication. Four study populations were evaluated for safety and efficacy and were defined as follows: The intent-to-treat (ITT) population included all patients who received at least one dose of study drug (all randomized study subjects).
The effectiveness of the three treatment regimens was determined by assessing the patients' clinical response and the documented or presumed microbiological responses. The primary efficacy endpoint was clinical response at the follow-up visit for the clinically evaluable population. Clinical response, for both EOT and FU visits, was categorized as success (cure or improvement) or failure (including indeterminate results). Patients classified as successes must not have received additional systemic antibacterial treatment for their infection. Failure was defined as persistence of one or more local or systemic signs and symptoms of SSTI such that treatment with new or additional systemic antibacterial agents was required for the SSTI.

dipeptide (D-Ala-D-Ala) = experiment: ITC, preliminary experiments; type: binding; conditions: absence of serum proteins
[3] = Safety assessments in healthy subjects; type: in vivo, human
Experimental: Adverse events were recorded and assessed for severity and relationship to study drug. Laboratory data (chemistry panel, CBC with differential, urinalysis) were collected and assessed for changes from baseline and out-of-range values. ECG, physical examination, and vital signs were obtained, and changes from baseline were assessed.

[4] = Pharmacokinetics and renal excretion in healthy subjects; type: in vivo, human
Experimental: Blood samples were drawn into heparinized tubes and centrifuged. Plasma was separated and stored frozen at −20° C. until time of assay. Plasma and urine samples were assayed for dalbavancin using validated LC/MS/MS methods. […] The peak concentration (Cmax) values were obtained directly from the observed data. The area under the plasma concentration-time curve (AUC) was calculated using the linear trapezoidal rule. Clearance (CL) was computed as dose/AUC. The elimination half life (t1/2) was estimated by linear regression of the log-linear portion of the log concentration versus time curve. Estimates of the volume of distribution (VZ) was calculated using the regression parameters, while the volume of distribution at steady state (Vss) was calculated from the area under the first moment curve (AUMC) multiplied by the dose and divided by AUC. The cumulative amount of dalbavancin excreted in urine was determined as the integrand of the urine excretion rate (AURC). CLR, or renal clearance, was calculated as the ratio: CLR=AURC/AUC.

rat albumin = rat albumin (Rattus norvegicus, UniProt P02770); experiment: Protein binding by ITC; conditions: pH 7.4
streptococci = experiment: In vitro antibacterial activity; type: cell-based; conditions: including penicillin-resistant strains
[5] = AE possibly related, upper limit of normal 40 IU/L
[6] = single 1000 mg IV dose, healthy subjects
[7] = six healthy volunteers, single 1000 mg IV

Sequence of rat albumin (P02770 25-608): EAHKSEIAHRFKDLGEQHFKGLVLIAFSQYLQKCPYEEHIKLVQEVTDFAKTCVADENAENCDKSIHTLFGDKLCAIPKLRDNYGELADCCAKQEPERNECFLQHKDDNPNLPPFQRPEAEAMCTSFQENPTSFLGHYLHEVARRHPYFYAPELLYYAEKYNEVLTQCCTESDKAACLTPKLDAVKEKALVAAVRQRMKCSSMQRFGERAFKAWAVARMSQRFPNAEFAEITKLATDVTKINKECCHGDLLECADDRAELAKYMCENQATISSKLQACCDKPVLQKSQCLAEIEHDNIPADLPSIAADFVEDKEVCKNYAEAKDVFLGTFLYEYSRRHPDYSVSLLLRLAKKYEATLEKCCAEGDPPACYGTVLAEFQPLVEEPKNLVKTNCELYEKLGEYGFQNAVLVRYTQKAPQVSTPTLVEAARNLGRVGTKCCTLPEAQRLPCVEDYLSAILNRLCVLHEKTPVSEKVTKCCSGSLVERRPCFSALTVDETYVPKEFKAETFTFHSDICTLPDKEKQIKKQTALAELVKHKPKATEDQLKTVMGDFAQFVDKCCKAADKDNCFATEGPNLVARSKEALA
Sequence of dog albumin (P49822 25-608): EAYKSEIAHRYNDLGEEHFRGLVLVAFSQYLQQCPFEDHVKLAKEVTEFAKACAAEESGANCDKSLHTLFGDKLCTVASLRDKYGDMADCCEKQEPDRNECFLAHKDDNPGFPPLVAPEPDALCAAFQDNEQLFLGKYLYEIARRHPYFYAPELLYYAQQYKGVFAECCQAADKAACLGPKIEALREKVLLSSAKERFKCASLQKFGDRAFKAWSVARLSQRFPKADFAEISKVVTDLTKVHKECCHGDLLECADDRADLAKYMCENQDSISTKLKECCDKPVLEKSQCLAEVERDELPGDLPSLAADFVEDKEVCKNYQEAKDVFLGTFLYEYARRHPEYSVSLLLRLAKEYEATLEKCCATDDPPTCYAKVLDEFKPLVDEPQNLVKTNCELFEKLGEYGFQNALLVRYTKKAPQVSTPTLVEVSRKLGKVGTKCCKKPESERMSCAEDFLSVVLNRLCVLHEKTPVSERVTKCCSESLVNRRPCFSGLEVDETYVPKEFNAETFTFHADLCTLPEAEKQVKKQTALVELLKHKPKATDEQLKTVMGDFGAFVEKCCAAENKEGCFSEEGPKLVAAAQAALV

Which “Dalbavancin MIC” value ([1]; single-dose arm) does the source give for `CN[C@H]1C(=O)N[C@@H]2Cc3ccc(cc3)Oc3cc4cc(c3O[C@@H]3O[C@H](C(=O)O)[C@@H](O)[C@H](O)[C@H]3NC(=O)CCCCCCCCC(C)C)Oc3ccc(cc3Cl)[C@@H](O)[C@@H]3NC(=O)[C@H](NC(=O)[C@@H]4NC(=O)[C@@H](NC2=O)c2cc(cc(O)c2Cl)Oc2cc1ccc2O)c1ccc(O)c(c1)-c1c(O[C@H]2O[C@H](CO)[C@@H](O)[C@H](O)[C@@H]2O)cc(O)cc1[C@@H](C(=O)NCCCN(C)C)NC3=O` [Dalbavancin] here?
The value was 3 (0.016) mg/L.

And the “Dalbavancin MIC” value ([1]; standard of care arm)?
Its value is 4 (0.016) mg/L.

What about the “Dalbavancin MIC” value ([1]; two-dose arm) of the same compound?
Its value is 2 (0.016) mg/L.

And the “Dalbavancin MIC” value (S. aureus; single-dose arm (N = 14))?
Its value is 13 (0.12) mg/L.

And the “Dalbavancin MIC range” value (S. aureus; standard of care arm (N = 14))?
Its value is 10 (0.016-0.25) mg/L.

What about the “Dalbavancin MIC” value (S. aureus; two-dose arm (N = 13)) of the same compound?
Its value is 11 (0.12) mg/L.

And the “Dalbavancin MIC” value (Group B streptococcus; standard of care arm)?
Its value is 2 (0.016) mg/L.

And the “Dalbavancin MIC” value (Group B streptococcus; two-dose arm)?
The value was 2 (0.016) mg/L.

What about the “Dalbavancin MIC” value (Streptococcus pyogenes; standard of care arm) of the same compound?
Its value is 1 (0.016) mg/L.

And the “Dalbavancin MIC” value (Streptococcus pyogenes; two-dose arm)?
The value was 1 (0.016) mg/L.

What about the “In vitro activity relative to teicoplanin and vancomycin” value (staphylococci) of the same compound?
Its value is “more active in vitro against staphylococci (including some teicoplanin-resistant strains) than teicoplanin and vancomycin”.

What about the “Apparent binding affinity Ka” value (dog albumin; 25° C.) of the same compound?
Its value is 0.62 (±0.09) ×10^5 M^−1.

And the “Apparent binding affinity Ka” value (dog albumin; 37° C.)?
The value was 0.50 (±0.13) ×10^5 M^−1.

What about the “Apparent binding affinity Ka” value (human α-glycoprotein; 25° C.) of the same compound?
Its value is 1.84 (±0.36) ×10^5 M^−1.

What about the “Apparent binding affinity Ka” value (human α-glycoprotein; 37° C.) of the same compound?
The value was 4.8 (±2.3) ×10^5 M^−1.

What about the “Calculated percent Binding to Human α-glycoprotein” value (from here on “Calculated percent Binding”) (human α-glycoprotein; antibiotic 1 μM) of the same compound?
Its value is 73.0%.

And the “Calculated percent Binding” value (human α-glycoprotein; antibiotic 10 μM)?
Its value is 68.2%.

And the “Calculated percent Binding” value (human α-glycoprotein; antibiotic 100 μM)?
The value was 26.2%.

And the “Calculated percent Binding” value (human α-glycoprotein; antibiotic 165 μM)?
Its value is 16.9%.

And the “Calculated percent Binding” value (human α-glycoprotein; antibiotic 250 μM)?
Its value is 11.4%.

And the “Calculated percent Binding” value (human α-glycoprotein; antibiotic 500 μM)?
The value was 5.9%.

And the “Concentrations known to be bactericidal” value (bacteria)?
The value was 4 to 32 mg/L.

What about the Clinical success rate ([2]; Clinically evaluable at EOT, single-dose 1100 mg) of the same compound?
Its Clinical success rate is 13/16 (61.5) %.

What about the Clinical success rate ([2]; Clinically evaluable at EOT, two-dose 1000/500 mg) of the same compound?
Its Clinical success rate is 16/17 (94.1) %.

And the Clinical success rate ([2]; ITT at EOT, single-dose dalbavancin 1100 mg IV day 1)?
Its Clinical success rate is 15/20 (75.0) %.

And the Clinical success rate ([2]; ITT at EOT, two-dose dalbavancin 1000 mg day 1 + 500 mg day 8 IV)?
Its Clinical success rate is 19/21 (90.5) %.

And the Clinical success rate ([2]; ITT at FU, single-dose 1100 mg)?
The Clinical success rate was 12/20 (60.0) %.

And the Clinical success rate ([2]; ITT at FU, two-dose 1000/500 mg)?
Its Clinical success rate is 19/21 (90.5) %.

What about the Clinical success rate ([2]; MITT at EOT, single-dose 1100 mg) of the same compound?
Its Clinical success rate is 10/14 (71.4) %.

And the Clinical success rate ([2]; MITT at EOT, two-dose 1000/500 mg)?
Its Clinical success rate is 12/13 (92.3) %.

And the Clinical success rate ([2]; MITT at FU, single-dose 1100 mg)?
The Clinical success rate was 7/14 (50.0) %.

What about the Clinical success rate ([2]; MITT at FU, two-dose 1000/500 mg) of the same compound?
The Clinical success rate was 12/13 (92.3) %.

And the “Clinical success rate at FU, patients with MRSA” value ([2]; single-dose dalbavancin)?
Its value is 50%.

What about the “Clinical success rate at FU, patients with MRSA” value ([2]; two-dose dalbavancin) of the same compound?
The value was 80%.

What about the Clinical success rate ([2]; Microbiologically evaluable at EOT, single-dose 1100 mg) of the same compound?
The Clinical success rate was 10/13 (76.9) %.

What about the Clinical success rate ([2]; Microbiologically evaluable at EOT, two-dose 1000/500 mg) of the same compound?
The Clinical success rate was 10/11 (90.9) %.

What about the Clinical success rate ([2]; Microbiologically evaluable at FU, single-dose 1100 mg) of the same compound?
Its Clinical success rate is 6/11 (54.5) %.

And the Clinical success rate ([2]; Microbiologically evaluable at FU, two-dose 1000/500 mg)?
Its Clinical success rate is 10/11 (90.9) %.

And the “Clinical success rate, exploratory subanalysis” value ([2]; single-dose dalbavancin)?
The value was 58.3%.

And the “Clinical success rate, exploratory subanalysis” value ([2]; two-dose dalbavancin)?
The value was 93.8%.

And the “Binding to dipeptide (D-Ala-D-Ala)” value (dipeptide (D-Ala-D-Ala))?
Its value is “no evidence of binding”.

And the “Eosinophilia, individual subject value” ([3]; AE possibly related, upper limit of normal 0.4×10^3/μL)?
Its value is 500 µL⁻¹.

And the “Elevated ALT, individual subject value” [3, 5]?
Its value is 46 IU/L and 54 IU/L.

And the “Elevated AST, individual subject value” [3, 5]?
The value was 42 IU/L.

What about the “Elevated LDH, individual subject value” ([3]; AE possibly related, upper limit of normal 90 IU/L) of the same compound?
Its value is 303 IU/L.

And the “Post-baseline hematology, chemistry, vital signs, and ECG” value ([3]; single 1000 mg IV)?
The value was “No trends were seen”.

And the “Deaths or serious adverse events” value [3, 6]?
The value was “No subject deaths or serious adverse events were reported”.

And the Tolerability [3, 6]?
The Tolerability was “well-tolerated”.

And the “AEs possibly related to study medication” value [3, 7]?
The value was “Three volunteers reported AEs that were possibly related to study medication”.

And the “Adverse events, incidence and intensity” value [3, 7]?
The value was “All volunteers reported at least one AE, all of mild intensity”.

What about the “AURC (cumulative amount excreted in urine)” value ([4]; Mean, single 1000 mg IV) of the same compound?
The value was 419 mg.

And the CL ([4]; Mean, single 1000 mg IV)?
Its CL is 0.0431 ± 0.0074 L/h.

What about the CLR ([4]; Mean, single 1000 mg IV) of the same compound?
The CLR was 0.018 L/h.

And the Vz ([4]; Mean, single 1000 mg IV)?
Its Vz is 16.0 L.

And the CLR ([4]; Min, single 1000 mg IV)?
The CLR was 0.0130 L/h.

And the “Peak concentration of dalbavancin in man” value ([4]; conversion of approximately 300 mg/L)?
The value was 165 µM.

And the Peak plasma concentrations ([4]; immediately following end of infusion, single 1000 mg IV)?
The Peak plasma concentrations was “approximately 300 mg/L”.

And the “Plasma concentrations maintained for at least seven days” value ([4]; single intravenous infusion of 1000 mg)?
Its value is “above 45 mg/l”.

What about the “Apparent binding affinity Ka” value (rat albumin; 25° C.) of the same compound?
The value was 3.1 (±0.5) ×10^5 M^−1.

What about the “Apparent binding affinity Ka” value (rat albumin; 37° C.) of the same compound?
The value was 2.8 (±1.8) ×10^5 M^−1.

What about the “Activity relative to teicoplanin or vancomycin” value (streptococci) of the same compound?
Its value is “better activity against streptococci, including penicillin-resistant strains, than teicoplanin or vancomycin”.
